# US20060069110A1, “Substituted heterocyclic compounds and methods of use” (priority 2004, published 2006)
# System: THP1 cells (LPS induced TNF release)
# Experiment: Lipopolysaccharide-Activated THP1 Cell TNF Production Assay
# Type: cell-based
# Details: Homo sapiens, THP-1; THP1 cells, bacterial LPS, secreted TNF-α after 3 h at 37° C.; read-out: IC50 values in the THP1 cell assay (LPS induced TNF release)
# Experimental: Lipopolysaccharide-Activated THP1 Cell TNF Production Assay
# THP1 cells are resuspended in fresh THP1 media (RPMI 1640, 10% heat-inactivated FBS, 1×PGS, 1×NEAA, plus 30 μM βME) at a concentration of 1E6/mL. One hundred microliters of cells per well are plated in a polystyrene 96-well tissue culture. One microgram per mL of bacterial LPS is prepared in THP1 media and is transferred to the wells. Test compounds are dissolved in 100% DMSO and are serially diluted 3 fold in a polypropylene 96-well microtiter plate (drug plate). HI control and LO control wells contain only DMSO. One microliter of test compound from the drug plate followed by 10 μL of LPS are transferred to the cell plate. The treated cells are induced to synthesize and secrete TNF-α at 37° C. for 3 h. Forty microliters of conditioned media are transferred to a 96-well polypropylene plate containing 110 μL of ECL buffer (50 mM Tris-HCl pH 8.0, 100 mM NaCl, 0.05% Tween 20, 0.05% NaN3 and 1% FBS) supplemented with 0.44 nM MAB610 monoclonal Ab (R&D Systems), 0.34 nM ruthenylated AF210NA polyclonal Ab (R&D Systems) and 44 μg/mL sheep anti-mouse M280 Dynabeads (Dynal). After a 2 h incubation at RT with shaking, the reaction is read on the ECL M8 Instrument (IGEN Inc.). A low voltage is applied to the ruthenylated TNF-α immune complexes, which in the presence of TPA (the active component in Origlo), results in a cyclical redox reaction generating light at […]. The amount of secreted TNF-α in the presence of compound compared with that in the presence of DMSO vehicle alone (HI control) is calculated using the formula: % control (POC)=(cpd−average LO)/(average HI−average LO)*100. Data (consisting of POC and inhibitor concentration in μM) is fitted to a 4-parameter equation (y=A+((B−A)/(1+((×/C)ôD))), where A is the minimum y (POC) value, B is the maximum y (POC), C is the x (cpd concentration) at the point of inflection and D is the slope factor) using a Levenburg-Marquardt non-linear regression algorithm.
row,SMILES,IC50 [µM]
1,"COc1nc(-c2ccccc2)nc(N(C)c2ccnc(N[C@@H](C)Cc3cccc([C@@H](C)N)c3)n2)n1 [Example 126, N^2-((S)-1-(3-((R)-1-Aminoethyl)phenyl)propan-2-yl)-N^4-(4-methoxy-6-phenyl-1,3,5-triazin-2-yl)-N^4-methylpyrimidine-2,4-diamine]",≤ 20
2,CC(C)[C@H](CC(=O)N1CCOCC1)Nc1nccc(N(C)c2ccnc(-c3ccccc3)n2)n1 [Example 61],≤ 20
3,"CN(c1ccnc(NC[C@H](O)c2ccccc2)n1)c1ccnc(-c2ccccc2)n1 [Example 110, (R)-2-(4-(Methyl(2-phenylpyrimidin-4-yl)amino)pyrimidin-2-ylamino)-1-phenyl-ethanol]",≤ 20
4,"CN(c1ccnc(NCCc2cccnc2)n1)c1nc(-c2ccccc2)ncc1Br [Example 63, N^4-(5-Bromo-2-phenylpyrimidin-4-yl)-N^4-methyl-N^2-(2-(pyridin-3-yl)ethyl)-pyrimidine-2,4-diamine]",≤ 20
5,"CN(c1ccnc(N[C@@H](CCO)c2ccccc2)n1)c1ccnc(-c2ccccc2)n1 [Example 30, (S)-3-(4-(Methyl(2-phenylpyrimidin-4-yl)amino)pyrimidin-2-ylamino)-3-phenylpropan-1-ol]",≤ 20
6,"CN(c1ccnc(NCCc2cccnc2)n1)c1ccnc(-c2ccccc2)n1 [Example 15, N^4-Methyl-N^4-(2-phenylpyrimidin-4-yl)-N^2-(2-(pyridin-3-yl)ethyl)pyrimidine-2,4-diamine]",≤ 20
7,"C[C@@H](Cc1cccc(CN)c1)Nc1nccc(N(C)c2ccnc(-c3ccccc3F)n2)n1 [Example 83, N^2-((S)-1-(3-(Aminomethyl)phenyl)propan-2-yl)-N^4-(2-(2-fluorophenyl)pyrimidin-4-yl)-N^4-methylpyrimidine-2,4-diamine]",≤ 20
8,"CN(c1ccnc(NC(C)(C)CN)n1)c1ccnc(-c2ccccc2)n1 [Example 27, N^2-(1-Amino-2-methylpropan-2-yl)-N^4-methyl-N^4-(2-phenylpyrimidin-4-yl)-pyrimidine-2,4-diamine]",≤ 20
9,"Clc1ccccc1CCNc1nccc(Nc2cc(-c3ccccc3)c(Cl)nn2)n1 [Example 183, N^2-(2-Chlorophenethyl)-N4-(6-chloro-5-phenylpyridazin-3-yl)pyrimidine-2,4-di-amine]",≤ 20
10,"CC(Cc1cccc(CO)c1)Nc1nccc(N(C)c2cc(Cl)nc(-c3ccccc3)c2)n1 (centres unmarked) [Example 163, (3-(2-(4-((2-Chloro-6-phenylpyridin-4-yl)(methyl)amino)pyrimidin-2-ylamino)-propyl)phenyl)methanol]",≤ 20
11,"C[C@H](Nc1nccc(N(C)c2ccnc(-c3ccccc3)n2)n1)[C@@H]1CCC[C@H](CCN)C1 [Example 10, N^2-((S)-((1R,3S)-3-(2-Aminoethyl)cyclohexyl)ethyl)-N^4-methyl-N^4-(2-phenylpyrimidin-4-yl)pyrimidine-2,4-diamine]",≤ 20
12,"CN(c1ccnc(NCCc2cccnc2)n1)c1ccnc(-c2ccc(F)cc2F)n1 [Example 77, N^4-(2-(2,4-Difluorophenyl)pyrimidin-4-yl)-N^4-methyl-N^2-(2-(pyridin-3-yl)ethyl)-pyrimidine-2,4-diamine]",≤ 20
13,"CN(c1cccc(-c2ccccc2)n1)c1ccnc(N[C@H]2CC[C@H](N)CC2)n1 [Example 153, N^2-((1s,4s)-4-aminocyclohexyl)-N^4-methyl-N^4-(6-phenylpyridin-2-yl)pyrimidine-2,4-diamine]",≤ 20
14,"CC(=O)N1CCC(Nc2nccc(N(C)c3cc(-c4ccccc4)c(=O)n(C)c3)n2)CC1 [Example 175, 5-((2-(1-Acetylpiperidin-4-ylamino)pyrimidin-4-yl)(methyl)amino)-1-methyl-3-phenylpyridin-2(1H)-one]",≤ 20
15,"C[C@H](Nc1nccc(N(C)c2ccnc(-c3ccccc3)n2)n1)c1cccc(CCN)c1 [Example 19, (S)-N^2-(1-(3-(2-Aminoethyl)phenyl)ethyl)-N^4-methyl-N^4-(2-phenylpyrimidin-4-yl)pyrimidine-2,4-diamine]",≤ 20
16,"CN(c1cccc(-c2cccc(C(F)(F)F)c2)n1)c1ccnc(NCCc2ccccc2)n1 [Example 129, N^4-Methyl-N^2-phenethyl-N^4-(6-(3-(trifluoromethyl)phenyl)pyridin-2-yl)-pyrimidine-2,4-diamine]",≤ 20

row,SMILES,IC50 [µM]
1,"C[C@H](N)C(=O)N[C@H]1CC[C@H](Nc2nccc(N(C)c3ccnc(-c4ccccc4)n3)n2)CC1 [Example 25, (S)-2-Amino-N-(4-(4-(methyl(2-phenylpyrimidin-4-yl)amino)pyrimidin-2-ylamino)cyclohexyl)propanamide]",≤ 20
2,"C[C@H](N)c1cccc(C[C@H](C)Nc2nccc(N(C)c3c[nH]c(=O)c(-c4ccccc4)c3)n2)c1 [Example 170, 5-((2-((S)-1-(3-((S)-1-Aminoethyl)phenyl)propan-2-ylamino)pyrimidin-4-yl)-(methyl)amino)-3-phenylpyridin-2(1H)-one]",≤ 20
3,"CN(c1ccnc(NCCc2ccccc2)n1)c1nccc(-c2ccccc2)n1 [Example 184, N^4-Methyl-N^2-phenethyl-N^4-(4-phenylpyrimidin-2-yl)pyrimidine-2,4-diamine]",≤ 20
4,"CN(c1cccc(-c2ccc(C(F)(F)F)cc2)n1)c1ccnc(NCCc2ccccc2)n1 [Example 128, N^4-Methyl-N^2-phenethyl-N^4-(6-(4-(trifluoromethyl)phenyl)pyridin-2-yl)-pyrimidine-2,4-diamine]",≤ 20
5,"CN(c1cc(-c2ccccc2)c(=O)n(C)c1)c1ccnc(NC2CCNCC2)n1 [Example 174, 1-Methyl-5-(methyl(2-(piperidin-4-ylamino)pyrimidin-4-yl)amino)-3-phenylpyridin-2(1H)-one]",≤ 20
6,"CN(c1ccnc(N[C@H]2CC[C@H](N)CC2)n1)c1ccnc(-c2ccccc2)n1 [Example 13, N^2-((1r,4r)-4-Aminocyclohexyl)-N^4-methyl-N^4-(2-phenylpyrimidin-4-yl)pyrimidine-2,4-diamine]",≤ 20
7,"C[C@H](NC(=O)OC(C)(C)C)c1ccc(CCNc2nccc(N(C)c3ccnc(-c4ccccc4)n3)n2)cc1 [Example 4, (S)-tert-Butyl 1-(4-(2-(4-(methyl(2-phenylpyrimidin-4-yl)amino)pyrimidin-2-ylamino)ethyl)phenyl)ethyl carbamate]",≤ 20
8,"CN(c1ccnc(N[C@@H](CCNC2CC2)Cc2ccccc2)n1)c1ccnc(-c2ccccc2)n1 [Example 59, (R)-N^2-(4-(Cyclopropylamino)-1-phenylbutan-2-yl)-N^4-methyl-N^4-(2-phenyl-pyrimidin-4-yl)pyrimidine-2,4-diamine]",≤ 20
9,"COc1ccccc1-c1cccc(N(C)c2ccnc(NCCc3ccccc3)n2)n1 [Example 142, N^4-(6-(2-Methoxyphenyl)pyridin-2-yl)-N^4-methyl-N^2-phenethylpyrimidine-2,4-diamine]",≤ 20
10,"CN(c1ccnc(NCCc2ccccc2)n1)c1nccc(C(C)(C)C)n1 [Example 186, N^4-(4-tert-Butylpyrimidin-2-yl)-N^4-methyl-N^2-phenethylpyrimidine-2,4-diamine]",≤ 20
11,"Cc1ccc(-c2cccc(N(C)c3ccnc(NCCc4ccccc4)n3)n2)cc1 [Example 137, N^4-Methyl-N^2-phenethyl-N^4-(6-p-tolylpyridin-2-yl)-pyrimidine-2,4-diamine]",≤ 20
12,"C[C@@H](Cc1cccc(CN)c1)Nc1nccc(N(C)c2ccnc(-c3ccccc3)n2)n1 [Example 89, (S)-N^2-(1-(3-(Aminomethyl)phenyl)propan-2-yl)-N^4-methyl-N^4-(2-phenylpyrimidin-4-yl)pyrimidine-2,4-diamine]",≤ 20
13,"CN(c1cncc(-c2ccccc2)n1)c1ccnc(NCCc2ccccc2Cl)n1 [Example 123, N^2-(2-Chlorophenethyl)-N^4-methyl-N^4-(6-phenylpyrazin-2-yl)pyrimidine-2,4-diamine]",≤ 20
14,"C[C@@H](Cc1cccc(CN)c1)Nc1nccc(N(C)c2cncc(-c3ccccc3)n2)n1 [Example 122, (S)-N^2-(1-(3-(Aminomethyl)phenyl)propan-2-yl)-N^4-methyl-N^4-(6-phenylpyrazin-2-yl)pyrimidine-2,4-diamine]",≤ 20
15,"CN(c1ccnc(NCCc2cccnc2)n1)c1ccnc(-c2ccc(F)cc2)n1 [Example 73, N^4-(2-(4-Fluorophenyl)pyrimidin-4-yl)-N^4-methyl-N^2-(2-(pyridin-3-yl)ethyl)-pyrimidine-2,4-diamine]",≤ 20
16,"C[C@H](N)c1cccc(C[C@H](C)Nc2nccc(N(C)c3ccnc(-c4ccccc4)n3)n2)c1 [Example 40, N^2-((S)-1-(3-((S)-1-Aminoethyl)phenyl)propan-2-yl)-N^4-methyl-N^4-(2-phenyl-pyrimidin-4-yl)pyrimidine-2,4-diamine]",≤ 20
